As a reminder, the Kd is the equilibrium constant for the complex coming apart. As a reminder, the IC50 is the concentration at which inhibition is half-maximal. For orientation: MIC means the smallest concentration in the dilution series that meets the test's criterion for growth inhibition.

SMILES strings stand for the structures. Like-named read-outs stand apart in the source and are kept apart here.

For series [1], the target named is T1, SurA (Escherichia coli, UniProt P0ABZ6). Nature of the series: biochemical. Type of series: binding, E. coli. The method, then: His-tagged SurA was labeled with the Monolith His-Tag Labeling Kit RED-tris-NTA (Nanotemper) according to the manufacturer's instructions.
Microscale thermophoresis measurements were performed in 40 mM HEPES pH 7.4, 0.05 % Tween-20 at 25°C with a Monolith NT.115 (NanoTemper) in standard capillaries.

Series [2] has as its target T1, SurA. Type of series: binding, E. coli. More on the design: key: An increase of the inflection points in the nanoDSF experiments is indicated by (+); a decrease by (-); no changes with (none); ambiguity with a question mark (?). Particulars: 100 µM compound, 2 µM SurA, 40 mM HEPES pH 7.4. As to the method:
Nano Differential Scanning Fluorimetry (nanoDSF) measurements of the QHL (qualified hit list) compounds provided by the ELF were performed on a Tycho system (NanoTemper).

The target of the next series is Luciferase (Photinus pyralis, UniProt P08659). Nature of the series: Primary assay buffer control without SurA: interference with Luciferase per se. More on the design: key: no influence on Luc activity = 0; enhances Luc activity = +; reduces Luc activity = -. Type of series: biochemical, firefly. As to the method: In short, the Luciferase based SurA activity assay was performed in SurA Activity Assay Buffer (40 mM HEPES pH 7.4, 20 mM MgSO4, 0.5 g/l BSA). SurA aliquots were thawn at RT, activated by mild heat treatment and cooled down to RT for 10 min. SurA concentration was adjusted to 1.6 µM in Activity Assay Buffer (protein solution). Solution A containing 10 mM ATP as well as 0.3 mM Luciferin (Promega Beetle Luciferin, Potassium Salt) in water was prepared. Luciferase working solution was prepared by diluting 1 ml Luciferase working stock (100 nM) with 9 ml assay buffer. 33 µl of the protein solution were added to every 2nd row of a well of a 384-well PS, white, flat bottom plate. […] Subsequently, 2 µl of compound in DMSO were added in quadruplicates (4 wells each of protein solution and buffer controls). These compound solutions could contain either various compounds or different dilutions of the same compound allowing screening inhibitor activity in a dose dependent manner. After compound addition, plates were incubated 15 min at RT. After this incubation, 5 µl of Luciferase working solution were added to each well. […] Subsequently, the assay plate was cooled for 5 min at 4°C followed by 10 min incubation at RT prior to luminescence measurement. Luminescence was measured in a TECAN infinite M200 pro plate reader for each well individually after injection of 10 µl Solution A. […]

Series [3] concerns the target T1, SurA. Type of series: biochemical, E. coli. Further details: key to primary assay SurA: SurA inhibition = +; no SurA inhibiton = 0. An excerpt: The biological function of SurA is to bind and to keep outer membrane proteins that have reached the periplasm in an unfolded but folding-competent state. The inventors' assay is based on this interaction and uses firefly Luciferase (fLuc) as a non-native substrate. […] This is exploited in the assay (Figure 3). The loss of tertiary structure of fLuc leads to the exposure of binding sites for SurA. It is known that SurA binds selectively to a special group of substrates. These substrates have in common the specific patterns of hydrophobic amino acids that are highly enriched in the beta strands of integral outer membrane proteins. These motifs are present in OMPs of all Gram-negative bacteria and in fLuc as well. Upon mild heat treatment of fLuc and its subsequent partial unfolding, fLuc is accepted as a substrate by SurA. Of note, these intermediates served as reporter substrates to determine the activity of a cytoplasmic folding chaperone. […] This interaction remains stable upon temperature reduction. Next, the temperature of the assay is reduced to room temperature and luciferase activity is subsequently measured by addition of Luciferin and ATP. In conditions without SurA, fLuc will refold into its active conformation resulting in a luminescence signal. […] In the case of presence of a SurA inhibitor (Figure 3 B), fLuc will adopt an active conformation resulting in an increased luminescence signal compared to conditions without SurA inhibition.
In short, the Luciferase based SurA activity assay was performed in SurA Activity Assay Buffer (40 mM HEPES pH 7.4, 20 mM MgSO4, 0.5 g/l BSA). SurA aliquots were thawn at RT, activated by mild heat treatment and cooled down to RT for 10 min. SurA concentration was adjusted to 1.6 µM in Activity Assay Buffer (protein solution). […] Subsequently, the assay plate was cooled for 5 min at 4°C followed by 10 min incubation at RT prior to luminescence measurement. Luminescence was measured in a TECAN infinite M200 pro plate reader for each well individually after injection of 10 µl Solution A.

In series [4] the target is T1, SurA. Type of series: binding, E. coli. More on the design: key to nanoDSF pH 5 Ti#1 / nanoDSF pH 5 Ti#2 / nanoDSF pH 7.4 Ti#1 / nanoDSF pH 7.4 Ti#2: An increase of the inflection points in the nanoDSF experiments is indicated by (+); a decrease by (-); no changes with (none); ambiguity with a question mark (?). As to the method:
To this end, 5 µl of a 2 mM compound solution in DMSO were mixed with 95 µl of a 20 µM SurA solution. Technical triplicate measurements were performed on a Prometheus system (NanoTemper).

For series [5], the target named is T1, SurA. Nature of the series: biochemical. Type of series: biochemical, E. coli. An excerpt: The biological function of SurA is to bind and to keep outer membrane proteins that have reached the periplasm in an unfolded but folding-competent state. The inventors' assay is based on this interaction and uses firefly Luciferase (fLuc) as a non-native substrate. […] The loss of tertiary structure of fLuc leads to the exposure of binding sites for SurA. It is known that SurA binds selectively to a special group of substrates. These substrates have in common the specific patterns of hydrophobic amino acids that are highly enriched in the beta strands of integral outer membrane proteins. These motifs are present in OMPs of all Gram-negative bacteria and in fLuc as well. Upon mild heat treatment of fLuc and its subsequent partial unfolding, fLuc is accepted as a substrate by SurA. Of note, these intermediates served as reporter substrates to determine the activity of a cytoplasmic folding chaperone. […] This interaction remains stable upon temperature reduction. Next, the temperature of the assay is reduced to room temperature and luciferase activity is subsequently measured by addition of Luciferin and ATP. In conditions without SurA, fLuc will refold into its active conformation resulting in a luminescence signal.
Of note, the SurA activity assay was performed similar at the ELF but with optimizations in regard of the higher throughput including the change of the plate format to 1536-wells. The SurA activity assay performed at the ELF contained the following steps (adapted from the QHL report provided by the ELF). First, SurA was thawed at RT and heat activated in a water bath. Next, the vial was taken out of the water bath and cooled down to RT for 30 min @ bench. […] Noteworthy, the SurA solution was kept on ice. 15 nL of 4 mM compound in DMSO were added to columns 9-48 with Echo acoustic nano-dispenser (ECHO). Additionally, 15 nL 100% DMSO were transferred to columns 1-8 with ECHO. […] The plate was spun for 60 seconds at 1000 rpm to ensure proper fluid localization at the bottom of the wells. […] Again, the plate was centrifuged for 60 seconds at 1000 rpm. […] To allow refolding of the luciferase, the plate was incubated 30 minutes at RT.

A further series relates to E. coli ATCC 25922. Nature of the series: Minimal inhibitory concentration assay / Vancomycin sensitizer MIC assay. Type of series: cell-based. Particulars: Escherichia coli, ATCC25922. An excerpt: The intended effect of a SurA inhibitor should be the induction of a disturbance of the outer membrane composition resulting in an increased susceptibility to antibiotic treatment. Of note, Vancomycin is typically not used to treat infections with Gram-negative bacteria, because it is excluded by the OM and not efficient at concentrations that could be achieved in patients. However, at appropriate dosing in vitro it can be used to detect outer membrane defects. For determining a potential sensitizing effect of Vancomycin treatment, the inventors first tested whether the compounds at hand were bactericidal per se. Therefore, the inventors performed a minimal inhibitory concentration (MIC) assay. To this end, 5 ml overnight cultures of E. coli BW25113 (Keio-Collection reference strain), E. coli JW2496-3 (Keio-Collection single gene knockout for bamB, which suffers from decreased outer membrane integrity) and E. coli ATCC 25922 (a reference strain recommended for antibiotic susceptibility testing) were grown in Mueller Hinton Broth, Cation adjusted (MHB-II). […] After o/n incubation, bacterial growth was quantified by measuring the optical density at 600 nm wavelength in a multiplate reader. […] Of note, the bactericidal effect of Vancomycin was assessed similarly for each test strain using Vancomycin concentrations ranging from 512 - 0.25 mg/ml. […]

A further series deals with HepG2 cells. The experiment in a line: Cytotoxicity assay, LDH release. Type of series: cell-based. The note with it: 500 µM compound. As to the method: Cell cytotoxicity was evaluated monitoring the LDH release from HepG2 cells using the CytoTox 96® Non-Radio Cytotoxicity Assay (Promega) according to the manufacturer's instructions. […] After incubation, 25 µl were transferred into a fresh 96-well flat clear bottom plate and mixed with 25 µl CytoTox 96® Reagent. LDH release reactions were incubated 30 min at RT in the dark and 25 µl Stop Solution were added. LDH release was measured at 490 nm in a multiplate reader.
(LDH leaks from cells whose membrane has failed.)

The next series addresses firefly Luciferase (Photinus pyralis, UniProt P08659). Nature of the series: Luciferase interference deselection assay (D1) at the ELF. Type of series: biochemical.
Series [6] in a line: Solubility estimate based on turbidity (OD600nm). Type of series: physicochemical.
Source text: The activity in the primary assay is distinguished into influence on SurA (SurA inhibition = +; no SurA inhibiton = 0) or interference with Luciferase per se (no influence on Luc activity = 0; enhances Luc activity = +; reduces Luc activity = -).

T1 sequence (P0ABZ6 21-428): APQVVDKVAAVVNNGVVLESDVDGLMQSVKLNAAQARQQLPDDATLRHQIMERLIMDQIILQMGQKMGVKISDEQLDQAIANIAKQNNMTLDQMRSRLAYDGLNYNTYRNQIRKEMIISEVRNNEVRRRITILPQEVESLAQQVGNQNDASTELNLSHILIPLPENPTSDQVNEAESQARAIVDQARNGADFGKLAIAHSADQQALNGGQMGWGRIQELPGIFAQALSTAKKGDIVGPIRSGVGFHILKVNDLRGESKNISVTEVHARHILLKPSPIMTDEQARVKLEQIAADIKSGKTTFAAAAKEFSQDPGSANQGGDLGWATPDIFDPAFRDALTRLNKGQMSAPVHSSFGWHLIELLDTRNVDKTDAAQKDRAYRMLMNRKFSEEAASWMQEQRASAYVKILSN
Chain of firefly Luciferase (P08659 whole entry): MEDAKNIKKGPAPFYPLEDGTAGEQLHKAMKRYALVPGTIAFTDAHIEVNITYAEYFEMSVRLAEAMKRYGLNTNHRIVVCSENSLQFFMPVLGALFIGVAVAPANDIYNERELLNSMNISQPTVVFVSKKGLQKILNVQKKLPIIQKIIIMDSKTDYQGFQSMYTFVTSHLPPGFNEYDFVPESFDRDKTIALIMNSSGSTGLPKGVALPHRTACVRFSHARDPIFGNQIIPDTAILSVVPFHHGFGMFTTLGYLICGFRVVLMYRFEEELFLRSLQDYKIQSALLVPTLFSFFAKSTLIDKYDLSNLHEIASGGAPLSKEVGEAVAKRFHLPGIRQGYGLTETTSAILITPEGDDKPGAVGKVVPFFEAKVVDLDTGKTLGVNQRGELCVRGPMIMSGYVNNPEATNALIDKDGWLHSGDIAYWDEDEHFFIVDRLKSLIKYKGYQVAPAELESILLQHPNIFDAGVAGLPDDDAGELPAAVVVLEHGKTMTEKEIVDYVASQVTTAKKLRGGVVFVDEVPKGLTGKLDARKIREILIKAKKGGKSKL
Chain of Luciferase (P08659 whole entry): as above
Procedure for firefly Luciferase: The confirmed actives of ELF program ELFSC17_02 were tested as serial dilutions in the primary assay and deselection assay to generate dose response curves (DRCs). The serial dilutions consisted of 7 equidistant concentration steps (20 µM to 27.4 nM) and were tested in the primary and in the deselection assay in duplo (n=2) in 1536-well format. […] For the luciferase interference deselection assay in DRC-format, luciferase was left out in the Max effect wells, mimicking a 100% effect situation and resulting in a decreased signal. Compounds showing a signal decrease larger than 5 times the standard deviation (Z-score > 5) were identified as luciferase inducer. […] The ActivityBase application (IDBS) was used to analyze the data and to calculate quality parameters like Z-prime and Signal to Background ratio (S/B). For all compounds the % effect was calculated for all seven concentrations. ActivityBase was also used to calculate the pEC50 and Hill Slope. […] For compounds where no curve was fitted but reached >50% effect at 20 µM the Fit_Max was locked at 100% effect. For compounds where no curve was fitted but reached 100% effect at 20 µM and descended to <50% at 27 nM the Fit_Min was locked at 0%.

In turn, `CN(C)c1ccc(-c2nc3cc(NC(=O)Cn4cc5ccccc5n4)ccc3[nH]2)cc1` [QHL-24, N-(2-(4-(dimethylamino)phenyl)-1H-benzo[d]imidazol-5-yl)-2-(2H-indazol-2-yl)acetamide] showed a dissociation constant (Kd) at SurA [1] of 0.02 to 0.03 mM. Besides, the “Re-evaluation (Tuebingen) MST score” value at SurA [1] (re-evaluation of QHL compound remainders) was “inconclusive”. In addition, the Kd at SurA [1] (read-out: MST (Kd in mM)) was 0.02 to 0.03 mM. Besides, at SurA [2], the “Re-evaluation (Tuebingen) nanoDSF (Tycho) Ti#1” value is on record as “none” and the “Re-evaluation (Tuebingen) nanoDSF (Tycho) Ti#2” value is listed as “+”. Further, on Luciferase, the “primary assay Luciferase” value is “-”. Moreover, at SurA [3], the “SurA inhibition in the Luciferase-based SurA activity assay (in words)” value is reported as “very high SurA inhibition”. Also, the “Primary Assay ICmax” value at SurA [3] (concentration of maximum SurA inhibition, dose response up to 250 µM, resynthesized/repurchased compounds) lay in the range of 5 to 10 µM. In addition, the “primary assay SurA” value on SurA [3] (influence on SurA) was “+”. In addition, the “thermal stability of SurA as detected by nanoDSF (in words)” value at SurA [4] is given as “affected the thermal stability of SurA”. On SurA [4] (40 mM HEPES pH 7.4, 150 NaCl), the “nanoDSF pH 7.4 Ti#1” value is “none” and the “nanoDSF pH 7.4 Ti#2” value is “-”. On SurA [4] (50 mM HAc pH 5), the “nanoDSF pH 5 Ti#1” value is on record as “none” and the “nanoDSF pH 5 Ti#2” value is “+”. On SurA [5], this compound had an IC50 of 3.55 µM. Further, on SurA [5] (ELF library screen, 1536-well), the “Primary assay (P1) % Effect” value amounted to 151% and the “Primary assay (P1) Z-score” value came to 191.97. In addition, the LipE on SurA [5] (listed under calculated properties) is listed as 1.39. The MIC in the series with E. coli ATCC 25922 was less than 256 µg/mL. Further, in the series on HepG2 cells, the “CytoTox (observation in the well)” value is “precipitate”. The same compound gave a CytoTox with HepG2 cells (LDH release, 1 h at 37°C) of 7.87%. The same compound showed an IC50 against firefly Luciferase of 38 µM. For the same compound, the “Deselection (D1) plC50” value at firefly Luciferase (Luciferase interference, 7 concentration steps 20 µM to 27.4 nM) stood at 4.42. Besides, the “solubility (in words)” value in series [6] is given as “poor solubility”.
